Results reported in US7135326B2, “UDP-glucosyltransferases” (E. I. du Pont de Nemours and Company, priority 2002, dated 2006).

How the values were obtained:
[1] = biological target: T1, Grape (Vitis sp.) UDP-glucosyltransferase (Grape GT), wild type, SEQ ID NO:18 (Vitis vinifera, UniProt F6H660); test: Kinetic analysis of purified recombinant Grape GT (spectrophotometric assay at 304 nm); type: biochemical; conditions: saturated with pHBA; 25° C., pH 7.3, 10 mM UDP-glucose
T1 construct: cell-free extract and purified recombinant protein
T1 sequence (F6H660 1-478): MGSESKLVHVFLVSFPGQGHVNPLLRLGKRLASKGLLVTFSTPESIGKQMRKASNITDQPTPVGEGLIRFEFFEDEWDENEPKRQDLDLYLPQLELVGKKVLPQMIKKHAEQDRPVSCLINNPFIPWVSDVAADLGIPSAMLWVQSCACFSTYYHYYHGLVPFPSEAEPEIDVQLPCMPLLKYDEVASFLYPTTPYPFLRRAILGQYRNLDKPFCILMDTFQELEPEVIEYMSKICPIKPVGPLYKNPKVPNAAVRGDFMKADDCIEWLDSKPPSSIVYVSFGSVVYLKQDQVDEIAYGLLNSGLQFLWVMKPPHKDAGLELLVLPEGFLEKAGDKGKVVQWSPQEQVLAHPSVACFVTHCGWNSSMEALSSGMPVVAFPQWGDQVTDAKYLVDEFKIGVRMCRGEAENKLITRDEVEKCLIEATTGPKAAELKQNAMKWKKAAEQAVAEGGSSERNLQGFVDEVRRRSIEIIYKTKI
Description: Turnover number for the present enzyme is determined according to principles well known in the art. […] Using the protein concentration as determined in μmols in the assay, one can determine how many μmols product are formed using 1.0 μmols enzyme in a fixed time period such as a second (i.e., how many times catalytic turnover occurred).
Initial rates of product formation were measured at 25° C. over a wide range of substrate concentrations using the spectrophotometric assay (see Example 4).

[2] = system: Arabidopsis thaliana UDP-glucosyltransferase 75B1; conditions: 20° C.; Lim et al. 2002; cited from earlier work
[3] = biological target: T1, Grape (Vitis sp.) UDP-glucosyltransferase (Grape GT), wild type, SEQ ID NO:18; test: Substrate inhibition of Grape GT in cell-free extract (initial rates, Table 2); type: biochemical; conditions: 10 mM pHBA; 25° C., pH 7.3, 10 mM UDP-glucose; data of Table 2
Description: For protein production, the resulting recombinant strains were grown at 22° C. in 50 mL of LB media that contained kanamycin (50 μg/mL). At an A600 nm of ˜0.6, isopropyl-1-thio-β-D-galactopyranoside was added to a final concentration of 0.2 mM. Following a 22-h induction period at the same temperature, the cells were harvested by centrifugation and stored at −80° C. for subsequent manipulation as described below.
The frozen cell pellets were resuspended in 1.0 mL of a solution containing 100 mM Tris-HCl (pH 7.7), 5 mM MgSO4, 1 mM dithiothreitol, 0.03 mg/mL DNAse I, 0.5 mM phenylmethanesulfonyl fluoride, and passed once through a French pressure cell at 20,000 psi. […] Protein concentrations were determined by the Bradford Method using bovine serum albumin as a standard.
The second assay is based on the increase in absorbance at 368 nm that accompanies the formation of the glucose ester of sinapic acid. The experimental conditions were the same as those described above, but the test substrate was sinapic acid and product formation was calculated using an extinction coefficient of 5,570 M^−1 that was obtained with the authentic chemically synthesized compound under identical conditions. […]

[4] = system: Arabidopsis thaliana glucosyltransferase UGT84A1 (84A1, GT 3, SEQ ID NO:8); conditions: 20° C.; Lim et al. 2002; cited from earlier work

O=C(O)c1ccc(O)cc1 [pHBA, p-Hydroxybenzoic acid]
turnover number (kcat) [1]: ~10.9 s⁻¹ | turnover number (formation of the pHBA ester glucoside) [2]: 0.73 sec^−1 | substrate inhibition (in words) [3]: little, if any, substrate inhibition | turnover number with pHBA [4]: ~0.21 sec^−1
